Read-outs that look alike come from different tables or passages of the source.

One assay concerns the target EGFR-WT (Homo sapiens (Human), UniProt P00533). Put plainly: Omnia assay for potency assessment against EGFR (WT).
In a further assay the target is BTK (Homo sapiens (Human), UniProt Q06187). Put plainly: Omnia assay for potency assessment against BTK. Type of assay: biochemical. Conditions: [BTK]=5 nM, Omnia assay; read-out: BTK Inhibition (IC50). On the procedure: The modified BTK-optimized reagent conditions for the above protocol are:
[BTK]=5 nM, [ATP]=[…], [Y5-Sox]=[…] (ATP KMapp˜[…]).

Where [1] appears, read: read-out: EGFR (wild type inhibition), EGFR wild type.

Sequence of BTK (Q06187 whole entry): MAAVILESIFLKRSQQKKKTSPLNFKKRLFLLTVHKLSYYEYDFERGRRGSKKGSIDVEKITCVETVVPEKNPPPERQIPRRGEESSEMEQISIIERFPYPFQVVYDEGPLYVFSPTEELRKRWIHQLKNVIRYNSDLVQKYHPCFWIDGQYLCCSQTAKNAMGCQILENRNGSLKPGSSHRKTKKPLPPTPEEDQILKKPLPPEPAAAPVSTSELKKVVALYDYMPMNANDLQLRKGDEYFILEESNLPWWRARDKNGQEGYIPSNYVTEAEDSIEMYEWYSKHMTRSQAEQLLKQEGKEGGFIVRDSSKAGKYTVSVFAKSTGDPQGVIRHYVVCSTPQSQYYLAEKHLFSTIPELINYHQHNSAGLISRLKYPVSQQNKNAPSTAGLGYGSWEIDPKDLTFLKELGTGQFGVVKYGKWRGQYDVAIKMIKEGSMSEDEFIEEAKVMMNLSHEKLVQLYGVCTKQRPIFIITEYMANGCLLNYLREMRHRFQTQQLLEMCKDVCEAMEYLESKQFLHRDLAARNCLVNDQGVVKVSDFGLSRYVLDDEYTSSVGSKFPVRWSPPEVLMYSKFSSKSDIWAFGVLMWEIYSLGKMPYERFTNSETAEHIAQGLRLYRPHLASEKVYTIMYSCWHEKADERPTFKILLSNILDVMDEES

In the case of `C=CC(=O)Nc1cccc(Nc2nc(Nc3ccc4c(c3)OCCO4)ncc2F)c1` [Compound I-349], the results for the IC50 at EGFR-WT and on BTK were 10 to 100 nM and below 10 nM, respectively.
On to `CC(C)=CC(=O)c1cccc(Nc2nc(Nc3cccc(OC(F)(F)F)c3)ncc2F)c1` [Compound I-223, 1-(3-(5-fluoro-2-(3-(trifluoromethoxy)phenylamino)pyrimidin-4-ylamino)phenyl)-3-methylbut-2-en-1-one], for which the IC50 on EGFR-WT (setting [1]) is 1000 to 10000 nM; at BTK it was above 10000 nM.
The corresponding values for “N-(3-(5-fluoro-2(3,4,5-trimethoxyphenylamino)pyrimidin-4-yloxy)phenyl)acrylamide [Compound I-148]” are 1000 to 10000 nM and 1000 to 10000 nM.
In the case of `C=CC(=O)Nc1cccc(Oc2nc(Nc3cccc(OCC4CCCN(C)C4)c3)ncc2F)c1` (centres unmarked) [Compound I-81, N-(3-(5-fluoro-2-(3-((1-methylpiperidin-3-yl)methoxy)phenylamino)pyrimidin-4-yloxy)phenyl)acrylamide], the IC50 on EGFR-WT (setting [1]) and at BTK was below 10 nM in each case.
On to `C=CC(=O)N1CCC(Nc2nc(Nc3ccc(OC)nc3)ncc2F)C1` (centres unmarked) [Compound I-203, 1-(3-(5-fluoro-2-(6-methoxypyridin-3-ylamino)pyrimidin-4-ylamino)pyrrolidin-1-yl)prop-2-en-1-one], for which the IC50 at EGFR-WT was in the range of 100 to 1000 nM; on BTK, 10 to 100 nM.
In the same order, the values of `C=CC(=O)N(C)Cc1ccc(Oc2nc(Nc3cccc(OCCCS(C)(=O)=O)c3)ncc2F)cc1` [Compound I-136, N-(4-(5-fluoro-2-(3-(3-(methylsulfonyl)propoxy)phenylamino)pyrimidin-4-yloxy)benzyl)-N-methylacrylamide] are 100 to 1000 nM and below 10 nM.
The corresponding values for `C=CC(=O)Nc1cccc(Nc2nc(Nc3ccc(Cl)c(OC)c3)ncc2F)c1` [Compound I-74, N-(3-(5-fluoro-2-(4-chloro-3-methoxyphenylamino)pyrimidin-4-ylamino)phenyl)acrylamide] are 100 to 1000 nM and below 10 nM.
Take `C=CC(=O)Nc1cccc(Nc2nc(NC3CCCN(C(C)=O)C3)ncc2F)c1` (centres unmarked) [Compound I-238, N-(3-(2-(1-acetylpiperidin-3-ylamino)-5-fluoropyrimidin-4-ylamino)phenyl)acrylamide]: the IC50 is above 10000 nM at EGFR-WT (setting [1]) and 1000 to 10000 nM on BTK.
Turning to `C=CC(=O)Nc1cccc(Nc2nc(Nc3ccc4c(c3)N(C(C)=O)CCO4)ncc2F)c1` [Compound I-112, N-(3-(2-(4-acetyl-2,3-dihydrobenzo[1,4]oxazin-6-yl)amino-5-fluoropyrimidin-4-ylamino)phenyl)acrylamide], the IC50 is 10 to 100 nM against EGFR-WT and below 10 nM at BTK.
As to `C#CCOc1cccc(Nc2ncc(F)c(Nc3cccc(C(=O)C=C(C)C)c3)n2)c1` [Compound I-211, 1-(3-(5-fluoro-2-(3-(prop-2-ynyloxy)phenylamino)pyrimidin-4-ylamino)phenyl)-3-methylbut-2-en-1-one], the IC50 at EGFR-WT (setting [1]) and on BTK was 1000 to 10000 nM in each case.
In the case of `C=CC(=O)Nc1cccc(Nc2nc(Nc3ccc(OC(C)(C)CO)cc3)ncc2F)c1` [Compound I-93, N-(3-(5-fluoro-2-(4-(1-hydroxy-2-methylpropan-2-yloxy)phenylamino)pyrimidin-4-ylamino)phenyl)acrylamide], the IC50 against EGFR-WT was 10 to 100 nM; at BTK, below 10 nM.
In the case of `C=CC(=O)Nc1cccc(Nc2nc(Nc3cccc(OCC(O)CO)c3)ncc2F)c1` (centres unmarked) [Compound I-339, N-(3-(2-(3-(2,3-dihydroxypropoxy)phenylamino)-5-fluoropyrimidin-4-ylamino)phenyl)acrylamide], the IC50 on EGFR-WT (setting [1]) and at BTK was below 10 nM each time.
In the case of `Cc1cccc(Nc2nc(Nc3cccc(NC(=O)/C=C/CN4C[C@@H]5C[C@H]4CN5)c3)ncc2F)c1` [Compound I-101, (E)-4-((1S,4S)-2,5-diazabicyclo[2.2.1]heptan-2-yl)-N-(3-(5-fluoro-4-(m-tolylamino)pyrimidin-2-ylamino)phenyl)but-2-enamide], the IC50 at EGFR-WT and at BTK was 10 to 100 nM in each case.
Take `C=CC(=O)N1CCC[C@@H](Nc2nc(Nc3ccc(OCCOC)c(F)c3)ncc2F)C1` [Compound I-344]: the IC50 was 100 to 1000 nM on EGFR-WT and below 10 nM on BTK.
For the molecule `CC(C)=CC(=O)c1ccc(Nc2nc(Nc3ccccc3)ncc2F)cc1` [Compound I-206, 1-(4-(5-fluoro-2-(phenylamino)pyrimidin-4-ylamino)phenyl)-3-methylbut-2-en-1-one], the IC50 is 1000 to 10000 nM at EGFR-WT (setting [1]) and above 10000 nM on BTK.
In the case of `C=CC(=O)N1CCC(Nc2nc(Nc3ccccc3)ncc2F)CC1` [Compound I-229, 1-(4-(5-fluoro-2-(phenylamino)pyrimidin-4-ylamino)piperidin-1-yl)prop-2-en-1-one], the IC50 at BTK lay in the range of 10 to 100 nM.
On the same count and under the same terms, as for `C=CC(=O)Nc1cccc(Nc2nc(Nc3ccc(Cl)c(OCCCS(C)(=O)=O)c3)ncc2F)c1` [Compound I-55, N-(3-(2-(4-chloro-3-(3-(methylsulfonyl)propoxy)phenylamino)-5-fluoropyrimidin-4-ylamino)phenyl)acrylamide], the figure is below 10 nM.
For `C=CC(=O)Nc1ccc(Nc2nc(Nc3cccc(OC)c3)ncc2C(F)(F)F)cc1` [Compound I-236, N-(4-(5-trifluoromethyl-2-(3-methoxyphenylamino)pyrimidin-4-ylamino)phenyl)acrylamide], the IC50 is 1000 to 10000 nM on EGFR-WT (setting [1]) and 10 to 100 nM on BTK.
With `C=CC(=O)N(C)Cc1cccc(Nc2nc(Nc3cccc(OC)c3)ncc2F)c1` [Compound I-115, N-(3-(5-fluoro-2-(3-methyoxyphenylamino)pyrimidin-4-ylamino)benzyl)-N-methylacrylamide], at BTK, the IC50 lay in the range of 10 to 100 nM.
The same measure, in the same setting: as for `C=CC(=O)Nc1cccc(Nc2ncc(C)c(Nc3cccc(Br)c3)n2)c1` [Compound I-9, N-(3-(4-(3-bromophenylamino)-5-methylpyrimidin-2-ylamino)phenyl) acrylamide], the figure is below 10 nM.
With `C=CC(=O)Nc1cccc(Nc2nc(Nc3cccc(N4CCN(CCO)CC4)c3)ncc2F)c1` [Compound I-83, N-(3-(2-(3-(4-(2-hydroxyethyl)piperazin-1-yl)phenylamino)-5-fluoropyrimidin-4-ylamino)phenyl)acrylamide], the IC50 against EGFR-WT lay within 10 to 100 nM.
In the case of `C=C(C#N)C(O)c1cccc(Nc2nc(Nc3ccc(OCC(C)(C)O)nc3)ncc2F)c1` (centres unmarked) [Compound I-312, 2-((3-(5-fluoro-2-(6-(2-hydroxy-2-methylpropoxy)pyridin-3-ylamino)pyrimidin-4-ylamino)phenyl)(hydroxy)methyl)acrylonitrile], the IC50 at BTK was below 10 nM.
Turning to `C=CC(=O)Nc1cccc(Nc2nc(Nc3ccccc3)ncc2C(=O)Nc2ccccc2)c1` [Compound I-222, 4-(3-acrylamidophenylamino)-N-phenyl-2-(phenylamino)pyrimidine-5-carboxamide], the IC50 against EGFR-WT is 100 to 1000 nM.
Take `COc1cccc(Nc2ncc(C(F)(F)F)c(Nc3cccc(C(=O)C=C(C)C)c3)n2)c1` [Compound I-225, 1-(3-(5-trifluoromethyl-2-(3-methoxyphenylamino)pyrimidin-4-ylamino)phenyl)-3-methyl-but-2-en-1-one]: on EGFR-WT (setting [1]), the IC50 lay in the range of 1000 to 10000 nM.
`COCCOc1ccc(Nc2ncc(F)c(Nc3cccc(C(=O)C=C(C)C)c3)n2)cc1F` [Compound I-323, 1-(3-(5-fluoro-2-(3-fluoro-4-(2-methoxyethoxy)phenylamino)pyrimidin-4-ylamino)phenyl)-3-methylbut-2-en-1-one]: the IC50 on EGFR-WT (setting [1]) is above 10000 nM.

Source of the values: patent publication US9987276B2 (Celgene CAR LLC, priority 2008, dated 2018).
